Measurements published in US9138418B2, “Therapeutic compositions and methods for delivery of active agents cleavably linked to nanoparticles” (priority 2009, dated 2015).

System: MCF-7 breast cancer cells
Assay: MTT cell growth inhibition assay in MCF-7 breast cancer cells
Format: cell-based
Conditions: 72 hours post treatment, concentrations with respect to paclitaxel content
Protocol: The antiproliferative capabilities of PTX-AuNPs from Example 1 were first investigated in vitro. To this end, cellular assays were performed to compare the ability of the PTX-AuNPs to inhibit cell growth relative to the parent drug. Briefly, MCF-7 breast cancer cells were treated over a range of concentrations (based on equivalent PTX content) for all samples and relative cell survival was measured 72 hours post treatment following the MTT protocol. Additionally, the paclitaxel pyruvate compound was also analyzed, as it represented the agent released from the gold surface upon degradation of the hydrazone linker. MCF-7 cells were plated in 6 well plates and allowed to proliferate until approximately 80-90% confluent. Once optimal confluency was reached, increasing concentrations of PTX-AuNPs were added to each well in order to ensure sufficient uptake for imaging (up to 100 μg/mL). Following 12 hours of incubation with PTX-AuNPs, the cells were fixed with a solution of gluteraldehyde and imaged by transmission electron microscopy (TEM). MCF-7 breast cancer cells were plated in 96-well plates at a concentration of 4,000 cells/well (100 μL/well) and allowed to attach for 24 hours. […] Upon agitating the plates for 2 minutes, absorbance values were recorded using a plate reader (Gene Mate, BioTek) equipped with a 570 nm filter.

IC50 (Homo sapiens, MCF7, MCF-7 cells) [nM] | IC50 (MCF-7 cells) [nM] | Structure (SMILES)
~4 |  | CC(=O)O[C@H]1C(=O)[C@@]2(C)[C@H]([C@H](OC(=O)c3ccccc3)[C@]3(O)C[C@H](OC(=O)[C@H](O)[C@@H](NC(=O)c4ccccc4)c4ccccc4)C(C)=C1C3(C)C)[C@]1(OC(C)=O)CO[C@@H]1C[C@@H]2O [paclitaxel]
 | 9 | CC(=O)OC1C(=O)C2(C)C(O)CC3OCC3(OC(C)=O)C2C(OC(=O)c2ccccc2)C2(O)CC(OC(=O)C(OC(=O)C(C)=O)C(NC(=O)c3ccccc3)c3ccccc3)C(C)=C1C2(C)C (centres unmarked) [paclitaxel pyruvate, Paclitaxel 2′ Pyruvate]
